Experimental data from PMC3982558, “Influence of the π-coordinated arene on the anticancer activity of ruthenium(II) carbohydrate organometallic complexes” (Frontiers in Chemistry, 2013).

molecular target: T1, cathepsin B (Bos taurus, UniProt P07688); test: colorimetric cathepsin B assay (Na-CBZ-L-lysine p-nitrophenyl ester), […] h preincubation; assay type: biochemical; conditions: read-out: IC50 values/μM Cat B
T1 construct: gene CTSB; Crude bovine spleen cathepsin B (Sigma C6286)

In order of rising IC50:
1. dichlorido(η^6-p-cymene)(3,5,6-bicyclophosphite-1,2-O-isopropylidene-α-D-glucofuranose)ruthenium(II) [1a]  1.5 ± 0.2 µM
2. dichlorido(η^6-p-cymene)(3,5,6-bicyclophosphite-1,2-O-cyclohexylidene-α-D-glucofuranoside)ruthenium(II) [1b]  4 ± 0.6 µM
3. Dichlorido(η^6-biphenyl)(3,5,6-bicyclophosphite-1,2-O-cyclohexylidene-α-D-glucofuranose)ruthenium(II) [compound 6]  8 ± 0.4 µM
